Drawing on patent US20210363152A1, “AMINOAZINE AMIDES” (Hoffmann-La Roche Inc., priority 2018, published 2021), this text covers IC50 for 37 compounds.

The experiment has as its target T1, Autotaxin enzyme (ATX) (Homo sapiens, UniProt Q13822).
T1 construct: purchased Echelon Biosciences, Inc. E-4000
In words: In vitro ATX assay (enzymatic ATX inhibition, LPC 14:0 substrate, choline oxidase/HRP absorbance readout). It is filed as biochemical. The conditions noted are these: 0.3 mM LPC 14:0, 37° C., 4 hours, absorbance 555 nm. The protocol: • Assay buffer: 100 mM Tris-HCl, pH 9.0, 500 mM NaCl, 5 mM MgCl2, 30 μM CoCl2, 0.05% Triton X-100 • Assay buffer II: 4.5 mM 4-AAP, 2.7 mM TOOS, 21.2 U/mL HRP, 3 U/mL CO, In 50 mM Tris-HCl pH 8.0, 4.5 mM MgCl2
A compound preparation plate (Nunc 249944) was prepared by adding 30 mM stock solution (in DMSO) of test compound and performing a serial full-log dilution down to 30 nM. Two μL/well were transferred from the first compound prep plate to a compound dilution plate (Corning, 3641) and 198 μL assay buffer I was added for a […].
A 10 ng/mL solution of ATX was prepared by diluting in assay buffer I, and 80 μL/well were added to the assay plate (Corning, 3641); negative control wells contained 80 μL/well assay buffer I only (no ATX). Ten μL/well from the compound dilution plate (containing serially diluted test compound or DMSO) were added to the assay plate, which was then incubated at 37° C. for 15 minutes. A solution of LPC 14:0 was prepared in assay buffer I at 3 mM and 10 μl/well were added to the assay plate, for a final concentration of 0.3 mM LPC, and returned to 37° C. incubator for 4 hours. After 4 hour incubation, 100 μL/well of assay buffer II was added to all wells of the assay plate. The plate was incubated at RT for 15 minutes, prior to reading on FlexStation in absorbance mode, 555 nm. Results in the enzymatic ATX inhibition assay are provided for compounds of formula (I). An IC50 value of “A” is less than 100 nM, “B” is equal to or greater than 100 nM but less than 1 μM, “C” is equal to or greater than 1 μM.
`CCOc1ccc2c(c1)CC(Nc1ncc(C(=O)N3CCC34COC4)cn1)C2` (stereo not shown) [Example 162, (2-((5-Ethoxy-2,3-dihydro-1H-inden-2-yl)amino)pyrimidin-5-yl)(6-oxa-1-azaspiro[3.3]heptan-1-yl)methanone] gave an IC50 of 100 to 1000 nM.

`O=C(c1cnc(NCc2cc(OC(F)(F)F)cc(C3CC3)c2)nc1)N1CCC12CCOC2` (single isomer, unassigned) [Example 116, (2-((3-Cyclopropyl-5-(trifluoromethoxy)-benzyl)amino)pyrimidin-5-yl)(6-oxa-1-azaspiro[3.4]octan-1-yl) methanone] showed an IC50 of under 100 nM.

For `O=C(c1cnc(NCc2cc(OC(F)(F)F)cc(C3CC3)c2)nc1)N1CCC12CCCOC2` (single isomer, unassigned) [Example 122, (2-((3-Cyclopropyl-5-(trifluoromethoxy)benzyl)amino)-pyrimidin-5-yl)(6-oxa-1-azaspiro[3.5]nonan-1-yl)methanone], the IC50 is under 100 nM.

Consider `CC(C)(C)c1cc(CNc2ncc(C(=O)N3CCC34COC4)cn2)cc(OC(F)(F)F)c1` [Example 4], for which the concentration for half-maximal inhibition (IC50) was under 100 nM.

`CC(C)c1cc(CNc2ncc(C(=O)N3CCC3C(C)(C)O)cn2)cc(OC(F)(F)F)c1` (stereo not shown) [Example 64]: the IC50 is under 100 nM.

The compound `O=C(c1cnc(NCc2cc(OC(F)(F)F)cc(C3CC3)c2)nc1)N1CCC12CNC2` [Example 141, (2-((3-Cyclopropyl-5-(trifluoromethoxy)benzyl)amino)pyrimidin-5-yl)(1,6-diazaspiro[3.3]heptan-1-yl)methanone] registered an IC50 of under 100 nM.

With `O=C(c1cnc(NCc2cc(OC(F)(F)F)cc(C3CC3)c2)nc1)N1CCc2cnccc21` [Example 91, (2-((3-cyclopropyl-5-(trifluoromethoxy)benzyl)ami-no)pyrimidin-5-yl)(2,3-dihydro-1H-pyrrolo[3,2-c]pyridin-1-yl)methanone], the IC50 is 100 to 1000 nM.

Consider `O=C(c1cnc(NC2Cc3ccc(Cl)cc3C2)nc1)N1CCCC12COC2` (stereo not shown) [Example 46], for which the IC50 is under 100 nM.

`CC(C)c1cc(CNc2ncc(C(=O)N3CCC34COC4)cn2)cc(S(F)(F)(F)(F)F)c1` [Example 19] registered a 50% inhibitory concentration (IC50) of 100 to 1000 nM.

In the case of `Cc1cc(CNc2ncc(C(=O)N3CCC3C)cn2)cc(OC(F)(F)F)c1` (stereo not shown) [Example 12], the concentration for half-maximal inhibition (IC50) was 100 to 1000 nM.

`O=C(c1cnc(NCc2cc(OC(F)(F)F)cc(C3CC3)c2)nc1)N1CCC1C(F)(F)F` (stereo not shown) [Example 114, (2-((3-cyclopropyl-5-(trifluoromethoxy)benzyl)ami-no)pyrimidin-5-yl)(2-(trifluoromethyl)azetidin-1-yl)methanone] showed an IC50 of 100 to 1000 nM.

Turning to `CC(C)c1cc(CNc2ccc(C(=O)N3CCC34COC4)cn2)cc(OC(F)(F)F)c1` [Example 76, (6-((3-Isopropyl-5-(trifluoromethoxy)benzyl)amino)pyridin-3-yl)(6-oxa-1-azaspiro[3.3]heptan-1-yl)methanone], the IC50 was under 100 nM.

In the case of `N#Cc1cc(CNc2ncc(C(=O)N3CCC34COC4)cn2)cc(OC(F)(F)F)c1` [Example 139, 3-(((5-(6-Oxa-1-azaspiro[3.3]heptane-1-carbonyl)pyrimidin-2-yl)amino)methyl)-5-(trifluoromethoxy)benzonitrile], the IC50 fell in the range of 100 to 1000 nM.

On to `CC(C)c1cc(CNc2ncc(C(=O)N3CCC34CN(S(C)(=O)=O)C4)cn2)cc(OC(F)(F)F)c1` [Example 151, (2-((3-Isopropyl-5-(trifluoromethoxy)benzyl)amino)pyrimidin-5-yl) (6-(methylsulfonyl)-1,6-diazaspiro[3.3]heptan-1-yl)methanone], for which the half-inhibitory concentration (IC50) is under 100 nM.

`CN1CCC2(CC1)CCN2C(=O)c1cnc(NC2Cc3ccc(Cl)cc3C2)nc1` (stereo not shown) [Example 40]: the concentration for half-maximal inhibition (IC50) was under 100 nM.

`CC(C)c1cc(CNc2cnc(C(=O)N3CCC3)cn2)cc(OC(F)(F)F)c1` [Example 74, Azetidin-1-yl(5-((3-isopropyl-5-(trifluoromethoxy)benzyl)amino)pyrazin-2-yl)methanone] returned a half-inhibitory concentration (IC50) of 100 to 1000 nM.

`O=C(c1ccc(NCc2cc(OC(F)(F)F)cc(C3CC3)c2)nc1)N1CCC12COC2` [Example 77, (6-((3-Cyclopropyl-5-(trifluoromethoxy)benzyl)amino)pyridin-3-yl)(6-oxa-1-azaspiro[3.3]heptan-1-yl)methanone] yielded an IC50 of under 100 nM.

Regarding `CC(C)Oc1cc(CNc2ncc(C(=O)N3CCC3C(C)(C)O)cn2)cc(OC(C)C)c1` (stereo not shown) [Example 58], the half-maximal inhibitory concentration (IC50) is under 100 nM.

`O=C(c1cnc(NCc2cc(OC(F)(F)F)cc(C3CC3)c2)nc1)N1CCC1C(F)F` (stereo not shown) [Example 113, (2-((3-cyclopropyl-5-(trifluoromethoxy)benzyl)ami-no)pyrimidin-5-yl)(2-(difluoromethyl)azetidin-1-yl)methanone] registered an IC50 of under 100 nM.

Regarding `CC(C)Oc1cc(CNc2ncc(C(=O)N3CCC34COC4)cn2)cc(OC(F)(F)F)c1` [Example 28], the IC50 was under 100 nM.

`CC1(C)CCN1C(=O)c1cnc(NCc2cc(OC(F)(F)F)cc(C3CC3)c2)nc1` [Example 89, (2-((3-cyclopropyl-5-(trifluoromethoxy)benzyl)ami-no)pyrimidin-5-yl)(2,2-dimethylazetidin-1-yl)methanone] registered an IC50 of under 100 nM.

The compound `O=C(c1cnc(NCc2cccc(Cl)c2Cl)nc1)N1CCC12COC2` [Example 55] registered a half-maximal inhibitory concentration (IC50) of 100 to 1000 nM.

In turn, `COc1ccc2c(c1)CC(Nc1ncc(C(=O)N3CCC34COC4)cn1)C2` (stereo not shown) [Example 32] registered an IC50 of 100 to 1000 nM.

The compound `O=C(c1cnc(NCc2cc(OC(F)(F)F)cc(C3CC3)c2)nc1)N1CCc2cccnc21` [Example 90, (2-((3-cyclopropyl-5-(trifluoromethoxy)benzyl)ami-no)pyrimidin-5-yl)(2,3-dihydro-1H-pyrrolo[2,3-b]pyridin-1-yl)methanone] returned an IC50 of 100 to 1000 nM.

In the case of `O=C(c1cnc(NCc2cc(OC(F)(F)F)cc(C3CC3)c2)nc1)N1CCC12CCOC2` (stereo not shown) [Example 97, (2-((3-cyclopropyl-5-(trifluoromethoxy)benzyl)ami-no)pyrimidin-5-yl)(6-oxa-1-azaspiro[3.4]octan-1-yl)methanone], the IC50 was under 100 nM.

For the compound `O=C(c1cnc(NCc2cccc(OC(F)F)c2)nc1)N1CCC12COC2` [Example 17], the IC50 was at least 1000 nM.

`CC(C)c1cc(CNc2ncc(C(=O)N3CCC3C)cn2)cc(OC(F)(F)F)c1` (single isomer, unassigned) [Example 69, (2-((3-Isopropyl-5-(trifluoromethoxy)benzyl)amino)pyrimidin-5-yl)(2-methylazetidin-1-yl)methanone]: the half-maximal inhibitory concentration (IC50) is under 100 nM.

The compound `O=C(c1cnc(NCc2cc(OC(F)(F)F)cc(C3CC3)c2)nc1)N1CCCC12COC2` [Example 96, (2-((3-cyclopropyl-5-(trifluoromethoxy)benzyl)ami-no)pyrimidin-5-yl)(2-oxa-5-azaspiro[3.4]octan-5-yl)methanone] registered an IC50 of under 100 nM.

`CS(=O)(=O)c1ccc2c(c1)CC(Nc1ncc(C(=O)N3CCC34COC4)cn1)C2` (stereo not shown) [Example 138, (2-((5-(Methylsulfonyl)-2,3-dihydro-1H-inden-2-yl)amino)pyrimidin-5-yl)(6-oxa-1-azaspiro[3.3]heptan-1-yl)methanone]: the IC50 was at least 1000 nM.

`O=C(c1cnc(NCc2cc(OC(F)(F)F)cc(C3CC3)c2)nc1)N1CCC12CN(CC(F)(F)F)C2` [Example 148, (2-((3-Cyclopropyl-5-(trifluoromethoxy)benzyl)amino)pyrimidin-5-yl) (6-(2,2,2-trifluoroethyl)-1,6-diazaspiro[3.3]heptan-1-yl)methanone] showed a half-inhibitory concentration (IC50) of under 100 nM.

The compound `O=C(c1cnc(NC2Cc3ccc(Cl)cc3C2)nc1)N1CCC12COC2` (stereo not shown) [Example 33] gave a 50% inhibitory concentration (IC50) of under 100 nM.

In the case of `CC(C)(O)[C@@H]1CCN1C(=O)c1cnc(N[C@@H]2Cc3ccc(Cl)cc3C2)nc1` [Example 135], the half-maximal inhibitory concentration (IC50) is under 100 nM.

`CC1CCN1C(=O)c1cnc(N[C@@H]2Cc3ccc(Cl)cc3C2)nc1` (stereo partly drawn) [Example 133, (2-(((R)-5-Chloro-2,3-dihydro-1H-inden-2-yl)amino)pyrimidin-5-yl)(2-methylazetidin-1-yl)methanone]: the half-maximal inhibitory concentration (IC50) is under 100 nM.

The compound `CC(Nc1ncc(C(=O)N2CCC23COC3)cn1)c1cccc(OC(F)(F)F)c1` (stereo not shown) [Example 13] came in with an IC50 of at least 1000 nM.

Take `CC(C)c1cc(CNc2ncc(C(=O)N3CCC3C)cn2)cc(OC(F)(F)F)c1` (stereo not shown) [Example 6]: the half-maximal inhibitory concentration (IC50) is under 100 nM.

`COC[C@@H]1CCN1C(=O)c1cnc(NCc2cc(OC(F)(F)F)cc(C3CC3)c2)nc1` [Example 104, (S)-(2-((3-cyclopropyl-5-(trifluoromethoxy)benzyl)ami-no)pyrimidin-5-yl)(2-(methoxymethyl)azetidin-1-yl)methanone] came in with a half-inhibitory concentration (IC50) of under 100 nM.

`O=C(c1cnc(NCc2cccc(OC(F)(F)F)c2)nc1)N1CC2(COC2)C1` [Example 3] yielded an IC50 of at least 1000 nM.
